{"source": "patent US10758534B2", "about": "(Vertex Pharmaceuticals Incorporated, priority 2014, dated 2020)", "target": "T1, F508del (Homo sapiens, UniProt P13569, DEL508-508)", "T1 construct": "expressed in transfected cells", "T1 sequence (P13569 with tags, fused parts or gaps DEL508-508)": "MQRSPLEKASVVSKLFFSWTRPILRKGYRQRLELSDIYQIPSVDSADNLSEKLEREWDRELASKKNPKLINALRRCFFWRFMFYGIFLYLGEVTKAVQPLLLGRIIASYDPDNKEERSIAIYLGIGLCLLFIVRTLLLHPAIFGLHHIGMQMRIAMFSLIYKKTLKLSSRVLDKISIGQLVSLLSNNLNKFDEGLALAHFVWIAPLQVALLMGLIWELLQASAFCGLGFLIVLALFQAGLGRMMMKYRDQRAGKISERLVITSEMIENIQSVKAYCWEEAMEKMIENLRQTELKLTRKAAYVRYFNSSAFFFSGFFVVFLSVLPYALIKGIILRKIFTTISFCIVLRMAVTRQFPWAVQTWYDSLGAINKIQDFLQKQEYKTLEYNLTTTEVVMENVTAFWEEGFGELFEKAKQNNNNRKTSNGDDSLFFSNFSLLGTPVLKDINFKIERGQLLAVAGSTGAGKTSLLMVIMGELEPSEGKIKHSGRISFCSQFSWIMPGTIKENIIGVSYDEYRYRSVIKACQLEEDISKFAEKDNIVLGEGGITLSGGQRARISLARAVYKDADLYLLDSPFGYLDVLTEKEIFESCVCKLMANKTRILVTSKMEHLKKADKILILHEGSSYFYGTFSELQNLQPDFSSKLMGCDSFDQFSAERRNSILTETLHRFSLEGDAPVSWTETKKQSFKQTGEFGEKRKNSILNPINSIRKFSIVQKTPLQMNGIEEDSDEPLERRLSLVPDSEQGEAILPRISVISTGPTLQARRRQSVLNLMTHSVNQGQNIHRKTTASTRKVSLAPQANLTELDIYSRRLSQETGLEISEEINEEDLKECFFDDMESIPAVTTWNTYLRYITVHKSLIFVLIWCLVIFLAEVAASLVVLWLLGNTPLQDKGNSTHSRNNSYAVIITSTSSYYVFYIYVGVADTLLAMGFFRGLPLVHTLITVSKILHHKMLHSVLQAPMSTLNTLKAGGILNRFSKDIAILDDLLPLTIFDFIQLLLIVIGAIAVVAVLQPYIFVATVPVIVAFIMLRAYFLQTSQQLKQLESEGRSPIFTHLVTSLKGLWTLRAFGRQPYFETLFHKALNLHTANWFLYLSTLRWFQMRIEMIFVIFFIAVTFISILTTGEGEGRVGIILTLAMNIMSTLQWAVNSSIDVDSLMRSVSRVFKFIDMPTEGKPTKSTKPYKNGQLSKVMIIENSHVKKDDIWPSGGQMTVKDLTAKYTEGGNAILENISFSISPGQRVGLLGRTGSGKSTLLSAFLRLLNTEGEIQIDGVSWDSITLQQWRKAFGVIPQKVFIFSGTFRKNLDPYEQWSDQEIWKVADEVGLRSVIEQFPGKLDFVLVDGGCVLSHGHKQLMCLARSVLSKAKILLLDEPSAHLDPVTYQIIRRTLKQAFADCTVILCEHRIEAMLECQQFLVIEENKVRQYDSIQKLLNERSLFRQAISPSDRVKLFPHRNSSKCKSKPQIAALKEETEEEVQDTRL", "assay": "Protocol 1: membrane potential optical assay (FLIPR III, voltage sensing dye), identification of potentiator compounds", "assay_type": "cell-based", "conditions": "Table 3, compounds of Table 1", "method_in_brief": "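Membrane potential in forskolin-activated, temperature-rescued F508del NIH 3T3 cells is followed with a voltage-sensing dye on FLIPR III. A chloride ion gradient created at the single addition step provides the driving force, after prior compound treatment.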", "data": [{"smiles": "CC1CN(c2nc(C(C)(C)C)c(C3=COCCC3)cc2C(=O)NS(=O)(=O)c2cccc(N)n2)C(C)(C)C1", "note": "(centres unmarked) [Compound 1487, N-[(6-amino-2-pyridyl)sulfonyl]-6-tert-butyl-5-(3,4-dihydro-2H-pyran-5-yl)-2-(2,2,4-trimethylpyrrolidin-1-yl)pyridine-3-carboxamide]", "values": [{"measurement": "EC30", "result": "+++ (“+++” means <3 uM)"}]}, {"smiles": "CCOc1cc(C)cc(-c2ccc(C(=O)NS(=O)(=O)c3cccc(N)n3)c(N3C[C@@H](C)CC3(C)C)n2)c1", "note": "[Compound 1488, N-[(6-amino-2-pyridyl)sulfonyl]-6-(3-ethoxy-5-methyl-phenyl)-2-[(4S)-2,2,4-trimethylpyrrolidin-1-yl]pyridine-3-carboxamide]", "values": [{"measurement": "EC30", "result": "+++ (“+++” means <3 uM)"}]}, {"smiles": "CC(C)C(C)c1ccc(C(=O)NS(=O)(=O)c2cccc(N)n2)c(N2C[C@@H](C)CC2(C)C)n1", "note": "(stereo partly drawn) [Compound 1489, N-[(6-amino-2-pyridyl)sulfonyl]-6-(1,2-dimethylpropyl)-2-[(4S)-2,2,4-trimethylpyrrolidin-1-yl]pyridine-3-carboxamide]", "values": [{"measurement": "EC30", "result": "+++ (“+++” means <3 uM)"}]}, {"smiles": "CCOC(=O)/C=C/c1cc(C(=O)NS(=O)(=O)c2cccc(N)n2)c(N2C[C@@H](C)CC2(C)C)nc1C(C)(C)C", "note": "[Compound 1490, Ethyl (E)-3-[5-[(6-amino-2-pyridyl)sulfonylcarbamoyl]-2-tert-butyl-6-[(4S)-2,2,4-trimethylpyrrolidin-1-yl]-3-pyridyl]prop-2-enoate]", "values": [{"measurement": "EC30", "result": "+++ (“+++” means <3 uM)"}]}, {"smiles": "CC(C)Oc1ccc(-c2nc(N3C[C@H](C)CC3(C)C)ccc2C(=O)NS(=O)(=O)c2cccc(N)n2)cn1", "note": "[Compound 1491, N-[(6-amino-2-pyridyl)sulfonyl]-2-(6-isopropoxy-3-pyridyl)-6-[(4R)-2,2,4-trimethylpyrrolidin-1-yl]pyridine-3-carboxamide]", "values": [{"measurement": "EC30", "result": "++ (“++” means between 3 uM and 10 uM)"}]}, {"smiles": "Cc1cc(C)c(Oc2nc(C3CC(=O)CC(C)(C)C3)ccc2C(=O)NS(=O)(=O)c2cccc(N)n2)c(C)c1", "note": "(centres unmarked) [Compound 1492, N-[(6-amino-2-pyridyl)sulfonyl]-6-(3,3-dimethyl-5-oxo-cyclohexyl)-2-(2,4,6-trimethylphenoxy)pyridine-3-carboxamide]", "values": [{"measurement": "EC30", "result": "++ (“++” means between 3 uM and 10 uM)"}]}, {"smiles": "CC(C)COc1cc(F)cc(-c2ccc(C(=O)NS(=O)(=O)c3cccc(N)n3)c(C3=CCC(C)(C)CC3)n2)c1", "note": "[Compound 1493, N-[(6-amino-2-pyridyl)sulfonyl]-2-(4,4-dimethylcyclohexen-1-yl)-6-(3-fluoro-5-isobutoxy-phenyl)pyridine-3-carboxamide]", "values": [{"measurement": "EC30", "result": "+++ (“+++” means <3 uM)"}]}, {"smiles": "Cc1cc(C)c(Oc2nc(N3[C@H](C)CC[C@@H]3C)ccc2C(=O)NS(=O)(=O)c2cccc(N)n2)c(C)c1", "note": "[Compound 1494, N-[(6-amino-2-pyridyl)sulfonyl]-6-[(2R,5S)-2,5-dimethylpyrrolidin-1-yl]-2-(2,4,6-trimethylphenoxy)pyridine-3-carboxamide]", "values": [{"measurement": "EC30", "result": "+++ (“+++” means <3 uM)"}]}, {"smiles": "CC1CN(c2nc(C(C)(C)C)c(C3=CCOCC3)cc2C(=O)NS(=O)(=O)c2cccc(N)n2)C(C)(C)C1", "note": "(centres unmarked) [Compound 1495, N-[(6-amino-2-pyridyl)sulfonyl]-6-tert-butyl-5-(3,6-dihydro-2H-pyran-4-yl)-2-(2,2,4-trimethylpyrrolidin-1-yl)pyridine-3-carboxamide]", "values": [{"measurement": "EC30", "result": "+++ (“+++” means <3 uM)"}]}, {"smiles": "Cc1nccc(-c2cccc(S(=O)(=O)NC(=O)c3cc(C(C)(C)C)nn3Cc3c(C)cccc3C)c2)n1", "note": "[Compound 1496, 5-tert-butyl-2-[(2,6-dimethylphenyl)methyl]-N-[3-(2-methylpyrimidin-4-yl)phenyl]sulfonyl-pyrazole-3-carboxamide]", "values": [{"measurement": "EC30", "result": "+++ (“+++” means <3 uM)"}]}, {"smiles": "CC(C)COc1cc(F)cc(-c2ccc(C(=O)NS(=O)(=O)c3cccc(N)n3)c(N3CC(C)CC3(C)C)c2F)c1", "note": "(centres unmarked) [Compound 1497, N-[(6-amino-2-pyridyl)sulfonyl]-3-fluoro-4-(3-fluoro-5-isobutoxy-phenyl)-2-(2,2,4-trimethylpyrrolidin-1-yl)benzamide]", "values": [{"measurement": "EC30", "result": "+++ (“+++” means <3 uM)"}]}, {"smiles": "CCOc1cccc2c1CN(Cc1c(C)cccc1C)C2(C)C(=O)NS(=O)(=O)c1cccc(N)n1", "note": "(centres unmarked) [Compound 1498, N-[(6-amino-2-pyridyl)sulfonyl]-2-[(2,6-dimethylphenyl)methyl]-4-ethoxy-1-methyl-isoindoline-1-carboxamide]", "values": [{"measurement": "EC30", "result": "+++ (“+++” means <3 uM)"}]}, {"smiles": "CC(C)COc1cc(F)cc(-c2ccc(C(=O)NS(=O)(=O)c3cccc(N)n3)c(OCC3CCOC3)n2)c1", "note": "(centres unmarked) [Compound 1499, N-[(6-amino-2-pyridyl)sulfonyl]-6-(3-fluoro-5-isobutoxy-phenyl)-2-(tetrahydrofuran-3-ylmethoxy)pyridine-3-carboxamide]", "values": [{"measurement": "EC30", "result": "++ (“++” means between 3 uM and 10 uM)"}]}, {"smiles": "C[C@@H]1CN(c2nc(C3CCCCO3)ccc2C(=O)NS(=O)(=O)c2cccc(N)n2)C(C)(C)C1", "note": "(stereo partly drawn) [Compound 1500, N-[(6-amino-2-pyridyl)sulfonyl]-6-tetrahydropyran-2-yl-2-[(4S)-2,2,4-trimethylpyrrolidin-1-yl]pyridine-3-carboxamide]", "values": [{"measurement": "EC30", "result": "+++ (“+++” means <3 uM)"}]}, {"smiles": "Cc1cccc(C)c1Cn1nc(-c2coc3ccccc3c2=O)cc1C(=O)NS(=O)(=O)c1ccccc1", "note": "[Compound 1501, N-(benzenesulfonyl)-2-[(2,6-dimethylphenyl)methyl]-5-(4-oxochromen-3-yl)pyrazole-3-carboxamide]", "values": [{"measurement": "EC30", "result": "+++ (“+++” means <3 uM)"}]}, {"smiles": "CC(C)COc1cc(F)cc(-c2ccc(C(=O)NS(=O)(=O)c3cccc(N)n3)c(C3=CC(C)(C)CC3(C)C)n2)c1", "note": "[Compound 1502, N-[(6-amino-2-pyridyl)sulfonyl]-6-(3-fluoro-5-isobutoxy-phenyl)-2-(3,3,5,5-tetramethylcyclopenten-1-yl)pyridine-3-carboxamide]", "values": [{"measurement": "EC30", "result": "+++ (“+++” means <3 uM)"}]}, {"smiles": "C[C@@H]1CN(c2nc(C3CCCCO3)ccc2C(=O)NS(=O)(=O)c2ccc[nH]c2=O)C(C)(C)C1", "note": "(stereo partly drawn) [Compound 1503, N-[(2-oxo-1H-pyridin-3-yl)sulfonyl]-6-tetrahydropyran-2-yl-2-[(4S)-2,2,4-trimethylpyrrolidin-1-yl]pyridine-3-carboxamide]", "values": [{"measurement": "EC30", "result": "++ (“++” means between 3 uM and 10 uM)"}]}, {"smiles": "C[C@@H]1CN(c2nc(-c3ccc(OCC(C)(C)C)nc3)ccc2C(=O)NS(=O)(=O)c2cccc(N)n2)C(C)(C)C1", "note": "[Compound 1504, N-[(6-amino-2-pyridyl)sulfonyl]-6-[6-(2,2-dimethylpropoxy)-3-pyridyl]-2-[(4S)-2,2,4-trimethylpyrrolidin-1-yl]pyridine-3-carboxamide]", "values": [{"measurement": "EC30", "result": "+++ (“+++” means <3 uM)"}]}, {"smiles": "CC(C)c1ccc(C(=O)NS(=O)(=O)c2cccc(N)n2)c(N2C[C@@H](C)CC2(C)C)n1", "note": "[Compound 1505, N-[(6-amino-2-pyridyl)sulfonyl]-6-isopropyl-2-[(4S)-2,2,4-trimethylpyrrolidin-1-yl]pyridine-3-carboxamide]", "values": [{"measurement": "EC30", "result": "+++ (“+++” means <3 uM)"}]}, {"smiles": "CC(C)CN(C)c1ccc(-c2ccc(C(=O)NS(=O)(=O)c3cccc(N)n3)c(N3[C@H](C)CC[C@@H]3C)n2)cn1", "note": "[Compound 1506, N-[(6-amino-2-pyridyl)sulfonyl]-2-[(2S,5R)-2,5-dimethylpyrrolidin-1-yl]-6-[6-[isobutyl(methyl)amino]-3-pyridyl]pyridine-3-carboxamide]", "values": [{"measurement": "EC30", "result": "+++ (“+++” means <3 uM)"}]}]}
